From PubChem BioAssay (NCI)
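Step 1: Grow cells in 96-well plates. Step 2: Expose to compound for 48 hours at 5 concentrations. Step 3: Interpolate endpoints linearly; if unreached, use highest concentration. GI50 is the concentration that inhibits growth by half. TGI marks complete inhibition of growth.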

Columns and labels:
Assay in all cases: NCI-60 cell line screen, 48 h
MDA-MB-231 breast = test system: MDA-MB-231 breast
DU-145 prostate = test system: DU-145 prostate
UO-31 renal = test system: UO-31 renal
SR leukemia = test system: SR leukemia
PC-3 prostate = test system: PC-3 prostate
OVCAR-5 ovarian = test system: OVCAR-5 ovarian
A549 NSCLC = test system: A549 NSCLC
COLO 205 colon = test system: COLO 205 colon
MOLT-4 leukemia = test system: MOLT-4 leukemia
SW-620 colon = test system: SW-620 colon
MDA-MB-435 = test system: MDA-MB-435
OVCAR-3 ovarian = test system: OVCAR-3 ovarian
CCRF-CEM leukemia = test system: CCRF-CEM leukemia
SK-OV-3 ovarian = test system: SK-OV-3 ovarian
NCI-H522 lung = test system: NCI-H522 lung
SK-MEL-28 melanoma = test system: SK-MEL-28 melanoma
NCI/ADR-RES ovarian = test system: NCI/ADR-RES ovarian
ACHN renal = test system: ACHN renal
SNB-19 CNS = test system: SNB-19 CNS
HOP-62 NSCLC = test system: HOP-62 NSCLC
HT29 colon = test system: HT29 colon
SF-539 CNS = test system: SF-539 CNS
786-0 renal = test system: 786-0 renal
SF-268 CNS = test system: SF-268 CNS
K-562 leukemia = test system: K-562 leukemia
HCT-15 colon = test system: HCT-15 colon
SF-295 CNS = test system: SF-295 CNS
M14 melanoma = test system: M14 melanoma
IGROV1 ovarian = test system: IGROV1 ovarian
SN12C renal = test system: SN12C renal
U251 CNS = test system: U251 CNS
OVCAR-8 ovarian = test system: OVCAR-8 ovarian
LOX IMVI melanoma = test system: LOX IMVI melanoma
UACC-257 melanoma = test system: UACC-257 melanoma
SK-MEL-2 melanoma = test system: SK-MEL-2 melanoma
OVCAR-4 ovarian = test system: OVCAR-4 ovarian
BT-549 breast = test system: BT-549 breast
HL-60(TB) leukemia = test system: HL-60(TB) leukemia
HCT-116 colon = test system: HCT-116 colon
A498 renal = test system: A498 renal
SNB-75 CNS = test system: SNB-75 CNS
CAKI-1 renal = test system: CAKI-1 renal
NCI-H460 lung = test system: NCI-H460 lung
MCF7 breast = test system: MCF7 breast
NCI-H23 lung = test system: NCI-H23 lung
RPMI-8226 leukemia = test system: RPMI-8226 leukemia
KM12 colon = test system: KM12 colon
SK-MEL-5 melanoma = test system: SK-MEL-5 melanoma

Structure (SMILES): Cc1nc2cc(Nc3nc(Nc4ccc(F)cc4)nc(N4CCN(C)CC4)n3)ccc2n1Cc1ccccc1
- GI50 (MDA-MB-231 breast): 1690 nM
- TGI (MDA-MB-231 breast): 3360 nM
- GI50 (DU-145 prostate): 1750 nM
- TGI (DU-145 prostate): 3370 nM
- GI50 (UO-31 renal): 1790 nM
- TGI (UO-31 renal): 3820 nM
- GI50 (SR leukemia): 266 nM
- TGI (SR leukemia): 806 nM
- GI50 (PC-3 prostate): 2040 nM
- TGI (PC-3 prostate): 5400 nM
- GI50 (OVCAR-5 ovarian): 2000 nM
- TGI (OVCAR-5 ovarian): 4700 nM
- GI50 (A549 NSCLC): 1510 nM
- TGI (A549 NSCLC): 3150 nM
- GI50 (COLO 205 colon): 1940 nM
- TGI (COLO 205 colon): 3620 nM
- GI50 (MOLT-4 leukemia): 2010 nM
- TGI (MOLT-4 leukemia): 5070 nM
- GI50 (SW-620 colon): 1790 nM
- TGI (SW-620 colon): 3950 nM
- GI50 (MDA-MB-435): 1870 nM
- TGI (MDA-MB-435): 3560 nM
- GI50 (OVCAR-3 ovarian): 1840 nM
- TGI (OVCAR-3 ovarian): 3510 nM
- GI50 (CCRF-CEM leukemia): 1930 nM
- TGI (CCRF-CEM leukemia): 5470 nM
- GI50 (SK-OV-3 ovarian): 1900 nM
- TGI (SK-OV-3 ovarian): 3780 nM
- GI50 (NCI-H522 lung): 1600 nM
- TGI (NCI-H522 lung): 3210 nM
- GI50 (SK-MEL-28 melanoma): 1730 nM
- TGI (SK-MEL-28 melanoma): 3160 nM
- GI50 (NCI/ADR-RES ovarian): 2710 nM
- TGI (NCI/ADR-RES ovarian): 7600 nM
- GI50 (ACHN renal): 1870 nM
- TGI (ACHN renal): 3830 nM
- GI50 (SNB-19 CNS): 2470 nM
- TGI (SNB-19 CNS): 7420 nM
- GI50 (HOP-62 NSCLC): 1850 nM
- TGI (HOP-62 NSCLC): 3650 nM
- GI50 (HT29 colon): 1660 nM
- TGI (HT29 colon): 3280 nM
- GI50 (SF-539 CNS): 1730 nM
- TGI (SF-539 CNS): 3130 nM
- GI50 (786-0 renal): 1540 nM
- TGI (786-0 renal): 3320 nM
- GI50 (SF-268 CNS): 1860 nM
- TGI (SF-268 CNS): 4080 nM
- GI50 (K-562 leukemia): 1340 nM
- TGI (K-562 leukemia): 5290 nM
- GI50 (HCT-15 colon): 1550 nM
- TGI (HCT-15 colon): 3480 nM
- GI50 (SF-295 CNS): 1820 nM
- TGI (SF-295 CNS): 3600 nM
- GI50 (M14 melanoma): 1970 nM
- TGI (M14 melanoma): 3690 nM
- GI50 (IGROV1 ovarian): 2450 nM
- TGI (IGROV1 ovarian): 5830 nM
- GI50 (SN12C renal): 1670 nM
- TGI (SN12C renal): 3340 nM
- GI50 (U251 CNS): 1350 nM
- TGI (U251 CNS): 2640 nM
- GI50 (OVCAR-8 ovarian): 2020 nM
- TGI (OVCAR-8 ovarian): 5490 nM
- GI50 (LOX IMVI melanoma): 1790 nM
- TGI (LOX IMVI melanoma): 3410 nM
- GI50 (UACC-257 melanoma): 1800 nM
- TGI (UACC-257 melanoma): 3300 nM
- GI50 (SK-MEL-2 melanoma): 1970 nM
- TGI (SK-MEL-2 melanoma): 3580 nM
- GI50 (OVCAR-4 ovarian): 2200 nM
- TGI (OVCAR-4 ovarian): 5870 nM
- GI50 (BT-549 breast): 1730 nM
- TGI (BT-549 breast): 3440 nM
- GI50 (HL-60(TB) leukemia): 1340 nM
- TGI (HL-60(TB) leukemia): 3360 nM
- GI50 (HCT-116 colon): 1330 nM
- TGI (HCT-116 colon): 3060 nM
- GI50 (A498 renal): 1560 nM
- TGI (A498 renal): 3190 nM
- GI50 (SNB-75 CNS): 1400 nM
- TGI (SNB-75 CNS): 2790 nM
- GI50 (CAKI-1 renal): 2190 nM
- TGI (CAKI-1 renal): 5400 nM
- GI50 (NCI-H460 lung): 1900 nM
- TGI (NCI-H460 lung): 3830 nM
- GI50 (MCF7 breast): 1360 nM
- TGI (MCF7 breast): 3380 nM
- GI50 (NCI-H23 lung): 2000 nM
- TGI (NCI-H23 lung): 4500 nM
- GI50 (RPMI-8226 leukemia): 1750 nM
- TGI (RPMI-8226 leukemia): 4280 nM
- GI50 (KM12 colon): 1730 nM
- TGI (KM12 colon): 3250 nM
- GI50 (SK-MEL-5 melanoma): 1540 nM
- TGI (SK-MEL-5 melanoma): 2890 nM
